According to patent publication US4689340A, “Trihaloimidazole insecticide” (Sumitomo Chemical Company, Limited, priority 1985, dated 1987):
Where two headings read alike, the source gives them in different places.

Key:
[1] = Acute Oral Toxicity Test to Mice (Test Example 1-1); conditions: mouse, in vivo; for selectivity ratio: po, mice oral LD50 (a) / German cockroach LD50 (b), read-out: Safety coefficient (a)/(b); for LD50 at 168 h: oral (stomach), corn oil, male ICR mice, 7 days' observation
Description: 1-1 Acute Oral Toxicity Test to Mice
(§1) The present compounds and the control were each diluted with corn oil to prescribed concentrations, and the dilute solutions obtained were forcedly administered to the stomach of six-week old male mice of ICR strain weighing 24 to 31 g, to which no food had been given for about 20 hours, at a rate of 0.1 ml/10 g of body weight. […] The number of the dead and alive was examined by seven day's observation to obtain LD50 value (50% lethal dosage) (5 mice per group). 1-2 Insecticidal activity test to German cockroach
The results of the acute oral toxicity test to mice and insecticidal activity test to German cockroaches on the test compounds are shown in Table 3. It is apparent from the table that the present compounds have the characteristics that the toxicity to the warm-blooded animal is low and the insecticidal activity on the insect pest is high. In order to make this characteristics clearer, the following safety coefficient was obtained from the test results. [formula]

[2] = tested on: German cockroach (Blattella germanica); assay: Insecticidal activity test to German cockroach, topical application (Test Example 1-2); format: in vivo, strain low susceptible to pyrethroids; conditions: 48 h, read-out: Insecticidal activity on German cockroaches LD50 value (b)
Description: as §1
The present compounds and the control were each diluted with acetone to prescribed concentrations and topically applied to the ventral thorax of the male adults of German cockroach (Blattella germanica) which belong to a strain low susceptible to pyrethroids, at a rate of 1 μl/adult. After application, the adults were bred on bait and water in a polyethylene cup. After two days, the number of the dead and alive was examined to obtain LD50 value (10 adults per group; two replications).

[3] = tested on: German cockroach (Blattella germanica); assay: Heating fumigant test in (70 cm)^3 glass chamber (Test Example 3); format: in vivo, strain low susceptible to pyrethroids; conditions: for mortality at 40 mg/m3, 40 mg/m3: Blattella germanica, 48 h
Description: (§2) One hundred mg of each of the present compounds (1) to (7) is dissolved in a proper amount of acetone, and a porous ceramic plate of 4.0 cm×4.0cm×1.2 cm (thick) is impregnated with this solution to obtain the heating fumigant of each compound.
Four polyethylene cups (inside diameter, 10 cm; height, 8 cm) coated with butter at the inside surface were set at the four corners, respectively, of the bottom of a (70 cm)^3 glass chamber (0.34 m^3). Ten male adults per group of German cockroach (Blattella germanica) which belongs to a strain low susceptible to pyrethroids, were liberated in each of two polyethylene cups, and 10 female adults per group of the insect were liberated in each of the remaining two. An electric heater was set at the center of the bottom of the glass chamber, and each of the porous ceramic plates impregnating the present compounds and the control according to Formulation example 8 (13.7 mg/plate: 40 mg/m^3), was placed thereon. The plate was heated to about 200° C. by applying current for 20 minutes. The number of knocked-down insects with the lapse of time was examined to obtain KT50 (50% knocked-down time). Eighty minutes after current application was started, the cups containing the test insects were taken out of the chamber, and the test insects were bred on water and bait. After two days, the number of the dead and alive was examined to obtain a mortality.

[4] = tested on: German cockroaches (Blattella germanica); assay: Heating fumigant test in (183 cm)^3 Peet Grady's chamber (Test Example 4); format: in vivo, strain low susceptible to pyrethroids; conditions: for mortality at 10 mg/m3, 10 mg/m3: Blattella germanica, 72 h
Description: as §2
At the bottom of a (183 cm)^3 Peet Grady's chamber (6.1 m^3) were placed three polyethylene cups (inside diameter, 10 cm; height, 8 cm) coated with butter at the inside surface, and 20 adult German cockroaches (10 males and 10 females) (Blattella germanica), which belong to a strain low susceptible to pyrethroids were liberated in each cup. An electric heater was set at the center of the bottom of the chamber, and each of the porous ceramic plates impregnated with the present compounds and the control according to Formulation example 8 (61 mg/plate: 10 mg/m^3), was placed thereon. The plate was heated to about 200° C. by applying current for 70 minutes. The number of knocked-down insects with the lapse of time was examined to obtain KT50 value (50% knocked-downtime). Eighty minutes after current application was started, the cups containing the test insects were taken out of the chamber, and the test insects were bred on water and bait. After three days, the number of the dead and alive was examined to obtain a mortality.

[5] = tested on: German cockroach (Blattela germanica); assay: Oil spray direct spray knock-down test, susceptible strain (Test Example 5); format: in vivo; conditions: 0.6 ml of 0.1% oil spray
Text: (§3) […] of the present compound (1), 2 parts of xylene and 97.8 parts of kerosene are mixed to obtain an oil spray.
(§4) Two groups of five male and five femlae adults per group of German cockroach (Blattela germanica), one group belonging to a susceptible strain and the other belonging to a strain low susceptible to pyrethroids,were liberated in a polyethylene cup of 9 cm in diameter thinly coated with vaseline at the inside surface. After covering the cup with a 16-mesh nylon gauze, the cup was placed on the bottom of a glass cylinder (inside diameter, 10 cm; height, 37 cm). Thereafter 0.6 ml of each of the 0.1% oil sprays of the present compounds and the control, prepared according to Formulation example 1, was directly sprayed onto the adults by means of a spray gun under 0.6 atmospheric pressure from the top of the cylinder. The number of knocked-down insects with the lapse of time was counted to obtain KT50 value (50% knocked-down time) (two replications).

[6] = tested on: German cockroach (Blattela germanica); assay: Oil spray direct spray knock-down test, strain low susceptible to pyrethroids (Test Example 5); format: in vivo; conditions: 0.6 ml of 0.1% oil spray
Text: as §3, §4

[7] = tested on: smoky brown cockroach (Periplaneta fuliginosa); assay: Topical application insecticidal test on smoky brown cockroach (Test Example 2); format: in vivo; conditions: Validiblatta fuliginosa, 48 h
Description: The present compounds and the control were each diluted with acetone and topically applied to the ventral thorax of the male adults of smoky brown cockroach (Periplaneta fuliginosa) at a rate of 10μg a.i./adult. After application, the adults were bred on bait and water in a polyethylene cup. After two days, the number of the dead and alive was examined to obtain a mortality (5 adults per group; two replications).

cockroach = assay: Insecticidal activity as cockroach-controlling insecticides (general statement); format: in vivo; conditions: among the listed cockroach-controlling compounds
[8] = ceramic plate heating fumigant, 13.7 mg/plate: 40 mg/m^3, 0.34 m^3 chamber, after two days, read-out: Mortality (%)
[9] = ceramic plate heating fumigant, 13.7 mg/plate: 40 mg/m^3, 0.34 m^3 chamber
[10] = ceramic plate heating fumigant, 61 mg/plate: 10 mg/m^3, 6.1 m^3 chamber, after three days, read-out: Mortality (%)
[11] = ceramic plate heating fumigant, 61 mg/plate: 10 mg/m^3, 6.1 m^3 chamber

| SMILES | selectivity ratio [1] | LD50 at 168 h [1] | LD50 [2] | mortality at 40 mg/m3, 40 mg/m3 [3, 8] | KT50 value (50% knocked-down time) [3, 9] | mortality at 10 mg/m3, 10 mg/m3 [4, 10] | KT50 value (50% knocked-down time) [4, 11] | Susceptible strain KT50 value [5] | Strain low susceptible to pyrethroids KT50 value [6] | mortality at 10 mg/m3, 10 mg/m3 [4] | mortality at 0.01 mg ([7]; 10μg a.i./adult, male adults, after two days, read-out: Mortality (%)) | mortality at 0.01 mg [7] | mortality at 40 mg/m3, 40 mg/m3 [3] | insecticidal activity (in words) (cockroach) |
| --- | --- | --- | --- | --- | --- | --- | --- | --- | --- | --- | --- | --- | --- | --- |
| CNC(=O)Oc1ccccc1OC(C)C [(E), Propoxur] | 5.6 | 39 mg/kg | 7 mg/kg | 0% | > 80 min | 0% | > 80 min | 6.9 min | 10 min | – | – | – | – | – |
| BrCCOCn1c(Br)nc(Br)c1Br [(C)] | 16 | 110 mg/kg | 7 mg/kg | – | – | – | > 80 min | > 20 min | ≥ 20 min | 40% | – | – | – | – |
| CCCCCOCn1c(Cl)nc(Cl)c1Cl [(B)] | – | – | > 20 mg/kg | 47.5% | > 80 min | 0% | > 80 min | > 20 min | > 20 min | – | 40% | – | – | – |
| ClCCCCOCn1c(Cl)nc(Cl)c1Cl [(2), 1-(4-chlorobutoxymethyl)-2,4,5-trichloroimidazole] | > 50 | > 300 mg/kg | 6.2 mg/kg | – | 41 min | – | 63 min | – | – | 80% | – | 100% | 100% | – |
| Clc1nc(Cl)n(COCCCCCBr)c1Cl [(5)] | – | – | – | 87.5% | 68 min | – | – | – | – | – | – | – | – | – |
| ClCCCCOCn1c(Br)nc(Br)c1Br [(4), 1-(4-chlorobutoxymethyl)-2,4,5-tribromoimidazole] | – | – | – | 90% | 58 min | – | – | 2.1 min | ≈ 0.5 minute | – | – | – | – | – |
| BrCCCCCCOCn1c(Br)nc(Br)c1Br [(7), 1-(6-bromohexyloxymethyl)-2,4,5-tribromoimidazole] | – | – | – | 92.5% | 65 min | – | – | 2.3 min | 0.72 min | – | – | – | – | – |
| CCCCOCn1c(Cl)nc(Cl)c1Cl [(A)] | – | – | > 10 mg/kg | – | – | 8% | > 80 min | > 20 min | > 20 min | – | – | – | – | – |
| Clc1nc(Cl)n(COCCCCCCBr)c1Cl [(6), 1-(6-bromohexyloxymethyl)-2,4,5-trichloroimidazole] | – | – | – | – | – | 95% | 41 min | – | – | – | – | – | – | – |
| ClCCOCn1c(Br)nc(Br)c1Br [(D)] | 18 | 170 mg/kg | 9.4 mg/kg | – | – | – | > 80 min | > 20 min | ≈ 20 minute | 3% | – | – | – | – |
| BrCCCCOCn1c(Br)nc(Br)c1Br [(3), 1-(4-bromobutoxymethyl)-2,4,5-tribromoimidazole] | – | – | – | 100% | 45 min | 90% | 77 min | 1.1 min | 1.2 min | – | – | – | – | – |
| Clc1nc(Cl)n(COCCCCBr)c1Cl [(1), 1-(4-bromobutoxymethyl)-2,4,5-trichloroimidazole] | > 50 | > 300 mg/kg | 6.4 mg/kg | – | 28 min | – | 38 min | 1.1 min | 0.70 min | 100% | – | 80% | 100% | most superior insecticidal activity |
